Measured values: patent EP1641803B1, “THIENOPYRIMIDINE DERIVATIVES AS POTASSIUM CHANNEL INHIBITORS” (Xention Limited, priority 2003, dated 2004)

How the values were obtained:
human Kv1.5 = target: T1, human Kv1.5 (Homo sapiens, UniProt P22460); test: Kv1.5 Rb+ Efflux Assay; format: cell-based; conditions: inhibition of 86Rb+ efflux through Kv1.5; cells stably transfected with human Kv1.5; 10 point concentration response curves n=2; normalised to 2.5mM 4 amino-pyridine block
T1 construct: expressed in transfected cells
T1 sequence (P22460 whole entry): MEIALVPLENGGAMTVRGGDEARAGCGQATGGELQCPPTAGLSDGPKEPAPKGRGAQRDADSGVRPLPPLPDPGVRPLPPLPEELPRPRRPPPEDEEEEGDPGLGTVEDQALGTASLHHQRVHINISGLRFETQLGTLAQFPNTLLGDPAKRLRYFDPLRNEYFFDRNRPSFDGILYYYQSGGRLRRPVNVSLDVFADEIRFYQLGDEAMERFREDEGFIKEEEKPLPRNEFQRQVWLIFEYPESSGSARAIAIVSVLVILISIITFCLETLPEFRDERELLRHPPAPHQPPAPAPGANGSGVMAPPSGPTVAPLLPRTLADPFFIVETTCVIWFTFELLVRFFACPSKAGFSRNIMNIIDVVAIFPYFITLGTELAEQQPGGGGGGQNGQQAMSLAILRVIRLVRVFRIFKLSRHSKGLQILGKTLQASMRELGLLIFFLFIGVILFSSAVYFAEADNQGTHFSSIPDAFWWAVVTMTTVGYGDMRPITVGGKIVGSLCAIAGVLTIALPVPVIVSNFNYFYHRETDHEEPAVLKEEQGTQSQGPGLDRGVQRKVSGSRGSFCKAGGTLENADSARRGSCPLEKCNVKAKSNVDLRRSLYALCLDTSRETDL
Procedure, shortened: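 Cells stably expressing human Kv1.5 loaded with ⁸⁶Rb⁺ ≥3 h, preincubated 10 min at room temperature with compound, then depolarised with high-KCl (145mM) buffer for 10 min; effluxed ⁸⁶Rb⁺ counted by Cerenkov emission (alternatively ⁸⁵Rb⁺ by atomic absorption). Inhibition normalised to 2.5mM 4-aminopyridine block; IC50 from 10-point curves, n=2, variable-slope sigmoidal fit.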

hKv1.5 = hKv1.5 (Homo sapiens, UniProt P22460); test: Kv1.5 Autopatch Electrophysiology (whole cell patch-clamp); format: cell-based; conditions: compound at 1µM, room temperature (22-24°C), held at -80mV, step to 0mV for 1000ms, total charge measured
hKv1.5, sequence (P22460 whole entry): as above
Procedure, shortened: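 Whole-cell automated patch-clamp at 22-24°C, compounds tested at 1µM in external bather (KCl/K-gluconate, pH 7.4; KCl/EGTA pipette). Cells held at -80mV and stepped to 0mV for 1000ms every 5s; only cells with IK > 500 pA and Rseries ≤18 MΩ used. Read-out: total charge over the whole step.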

| IC50 (human Kv1.5) | inhibition at 1 µM (hKv1.5) | Compound |
| --- | --- | --- |
| 530 nM | 92.8% | Brc1sc2ncnc(NCc3ccccn3)c2c1-c1ccccc1 [Example 164, (6-Bromo-5-phenyl-thieno[2,3-d]pyrimidin-4-yl)-pyridin-2-ylmethyl-amine] |
| 800 nM | 15.3% | c1ccc(-c2csc3ncnc(NCC4CC4)c23)cc1 [Example 84, Cyclopropylmethyl-(5-phenyl-thieno[2,3-d]pyrimidin-4-yl)-amine] |
| > 30000 nM | 44% | O=[N+]([O-])c1ccc(CNc2ncnc3scc(-c4cccs4)c23)cc1 [Example 93, (4-Nitro-benzyl)-(5-thiophen-2-yl-thieno[2,3-d]pyrimidin-4-yl)-amine] |
| 1510 nM | 88% | CC(C)c1nc(NCc2ccccn2)c2c(-c3ccccc3)csc2n1 [Example 148, (2-Isopropyl-5-phenyl-thieno[2,3-d]pyrimidin-4-yl)-pyridin-2-ylmethyl-amine] |
| 240 nM | 88% | Cc1sc2ncnc(NCc3ccccn3)c2c1-c1ccccc1 [Example 157, (6-Methyl-5-phenyl-thieno[2,3-d]pyrimidin-4-yl)-pyridin-2-ylmethyl-amine] |
